Measurements as given in article PMC10338474 (Nature Communications, 2023).
Where “and” joins values, the source holds several entries; their conditions need not be identical. Identical values can stand only once. Entries after “also recorded” stand apart in the source; their conditions may differ. Like-named read-outs stand apart in the source and are kept apart here.

How the values were obtained:
EPAC1^FL [1] = target: T1, EPAC1^FL (Homo sapiens, UniProt O95398); test: Liposome flotation binding assay of EPAC1^FL
T1 construct: Human full-length EPAC1 (EPAC1^FL) was cloned into a pET28a vector (6xHis tag in N-terminus); made in house; host or cells: E. coli BL21 (DE3) pG-KJE8
T1 sequence (O95398 1-881 isoform O95398-3): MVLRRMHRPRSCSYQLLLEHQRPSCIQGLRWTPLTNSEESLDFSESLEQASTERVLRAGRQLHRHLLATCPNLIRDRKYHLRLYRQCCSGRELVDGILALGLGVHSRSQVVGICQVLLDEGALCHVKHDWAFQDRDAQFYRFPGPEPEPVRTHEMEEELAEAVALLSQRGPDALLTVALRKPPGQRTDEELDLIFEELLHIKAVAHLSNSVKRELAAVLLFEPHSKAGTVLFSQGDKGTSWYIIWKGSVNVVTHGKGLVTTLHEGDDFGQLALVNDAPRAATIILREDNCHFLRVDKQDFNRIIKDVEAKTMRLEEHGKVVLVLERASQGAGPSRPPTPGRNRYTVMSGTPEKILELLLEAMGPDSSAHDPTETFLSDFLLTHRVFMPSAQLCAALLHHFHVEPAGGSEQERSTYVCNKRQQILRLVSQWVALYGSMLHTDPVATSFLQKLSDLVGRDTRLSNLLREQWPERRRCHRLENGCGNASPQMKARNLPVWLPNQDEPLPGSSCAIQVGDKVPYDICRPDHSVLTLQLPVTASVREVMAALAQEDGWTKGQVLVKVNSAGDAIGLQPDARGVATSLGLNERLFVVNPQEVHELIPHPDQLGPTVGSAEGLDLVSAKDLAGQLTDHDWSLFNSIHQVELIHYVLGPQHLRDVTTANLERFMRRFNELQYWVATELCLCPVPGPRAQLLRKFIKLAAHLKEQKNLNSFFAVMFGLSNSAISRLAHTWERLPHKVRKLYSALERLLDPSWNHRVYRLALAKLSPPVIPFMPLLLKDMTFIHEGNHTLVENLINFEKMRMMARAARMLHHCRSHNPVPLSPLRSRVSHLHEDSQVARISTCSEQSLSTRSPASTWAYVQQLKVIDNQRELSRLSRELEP

arrhythmia in mice = conditions: cited from earlier work
arrhythmia in rats = conditions: cited from earlier work
[2] = system: isolated CNB domain of EPAC1; conditions: NMR; without competing with cAMP; cited from earlier work
[3] = system: Rap1 GTPase in cardiomyocytes; set-up: method as in PMID 23139415; conditions: cited from earlier work
EPAC1^α-CNB-GEF [4] = target: EPAC1^α-CNB-GEF (Homo sapiens, UniProt O95398); conditions: for Dmax (largest protein dimension): EPAC1^α-CNB-GEF with the single ligand (cAMP 1 mM/200 μM or CE3F4 100 μM racemic mix)
Description: All small angle X-ray scattering (SAXS) data were obtained from size exclusion chromatography-SAXS (SEC-SAXS) experiments on the SWING beamline (SOLEIL synchrotron, France), using the EPAC1^α-CNB-GEF construct. EPAC1 was used at a concentration of 60 μM to obtain high SAXS intensities. Samples were injected on high-performance liquid chromatography (HPLC) size exclusion column (BioSEC-3 300 Å, Agilent Technologies, Inc.) equilibrated with the elution buffer (20 mM Tris-HCl pH 8.0, 150 mM NaCl, 0.5 mM EDTA). […] Data reduction to absolute units, frame averaging, and subtraction were done using the FOXTROT program suite (SOLEIL synchrotron). Frames corresponding to the high-intensity fractions of the peak and having a constant radius of gyration (Rg) within error were averaged. […] Rg values were evaluated by Guinier Wizard using the data within the range of Guinier approximation sRg < 1.3 and by Distance Distribution Wizard, both of which are modules of the PRIMUS program. The maximum distance Dmax was estimated with PRIMUS and refined by trial and error with GNOM. The distance distribution functions were calculated with GNOM. SAXS profiles were compared with DATCMP (ATSAS suite).

EPAC1^GEF = EPAC1^GEF (Homo sapiens, UniProt O95398); conditions: cited from earlier work
EPAC1^α-CNB-GEF [5] = conditions: cited from earlier work
[6] = target: CNB domain-containing EPAC1 constructs (Homo sapiens, UniProt O95398); conditions: Supplementary Fig. 2c
[7] = target: Rap1/EPAC1^α-CNB-GEF complex (Homo sapiens, UniProt O95398); conditions: cAMP 1 mM, EDTA, DMSO
Description: EPAC1^α-CNB-GEF was used at 25 μM in all experiments. […] Proteins samples were injected into a 25 mL Superdex 200 gel filtration column (GE Healthcare) at 0.5 mL/min. Fractions were analyzed by SDS-PAGE.

EPAC1 = conditions: cited from earlier work
EPAC1^CNB-GEF = EPAC1^CNB-GEF (Homo sapiens, UniProt O95398); conditions: in solution; Supplementary Fig. 4d
Description: For kinetics assays, the Rap1 GTPase was loaded with BODIPY-FL-GDP (Jena Bioscience) prior to nucleotide exchange by incubating 50 μM Rap1 with 250 μM BODIPY-GDP and 10 mM EDTA for 30 min at room temperature. Nucleotide exchange was stopped by the addition of 75 mM MgCl2. Removal of excess nucleotides and buffer exchange were done on a PD SpinTrap G-25 (GE HealthCare Life Science). Nucleotide exchange kinetics were monitored by following the decay of BODIPY-GDP fluorescence upon replacement by GTP, using excitation and emission wavelengths of 485 and 530 nm, respectively. Measurements were carried out at 30 °C on a Cary Eclipse fluorimeter (Varian) under stirring in 800 μL cuvettes, or in microplate wells (150 μL) on a FLEXstation (Molecular Devices). […] Liposomes were added at 100 μM (total lipids). For kinetics in solution, kobs values were determined from a mono-exponential fit. […] In this case, kobs values corresponding to the fast component were used.

EPAC1^FL [8] = target: T1, EPAC1^FL; test: Nucleotide exchange kinetics assay (BODIPY-GDP dissociation from Rap1) with full-length EPAC1; assay type: biochemical; conditions: for increase in affinity, PM liposomes vs solution: ratio of apparent KD
Description: Liposomes were added at 100 μM (total lipids).
Nonlinear regression based on a straight line model was performed with GraphPad Prism. EPAC1 pseudo first order catalytic efficiencies kcat/KM were deduced from the slopes of the curves, according to the Michaelis–Menten formalism. […] Nonlinear regression based on a sigmoidal model was performed with GraphPad Prism. KD and kmax were deduced from the EC50 and top values of the curves, respectively.

## CC1CCc2c(cc(Br)c(F)c2Br)N1C=O (stereo not shown) [CE3F4]
EPAC1^FL [1]; Fig. 4f left, without cAMP, CE3F4 50 μM
  Binding (%) of EPAC1^FL to PM liposomes, DMSO set to 100%: 81%
Arrhythmia in mice
  arrhythmia: prevents
Arrhythmia in rats
  arrhythmia: prevents
[2]
  binding to the isolated CNB domain: binds
[3]
  activation of the Rap1 GTPase in cardiomyocytes: efficiently inhibits
EPAC1^α-CNB-GEF [4]; +cAMP +CE3F4
  Rg, Guinier analysis: 33.41 Å
  Rg, P(r) analysis: 33.84 Å
EPAC1^α-CNB-GEF [4]
  Dmax (largest protein dimension): 114 Å
EPAC1^α-CNB-GEF [4]; single ligand
  Rg, Guinier analysis: 32.58 Å
  Rg, P(r) analysis: 32.86 Å
EPAC1^GEF
  inhibition of the GEF domain of EPAC1 alone: does not inhibit
EPAC1^α-CNB-GEF [5]
  in vitro activation of Rap1 by EPAC1^α-CNB-GEF: inhibits

## Nc1ncnc2c1ncn2[C@@H]1O[C@@H]2COP(=O)(O)O[C@H]2[C@H]1O [cAMP, cyclic adenosine monophosphate]
[6]
  effect of cAMP on binding of CNB domain-containing EPAC1 constructs to PM liposomes: does not increase
[7]
  formation of the Rap1-EPAC1^α-CNB-GEF complex: readily observed
EPAC1^FL [1]; flotation assay, 1 mM cAMP
  effect of addition of cAMP on EPAC1^FL binding to PS-PIP2 liposomes with cholesterol: no discernible effect
EPAC1; read-out: half-maximal activation of EPAC1
  EC50: […]
EPAC1^CNB-GEF
  effect of cAMP on intrinsic GEF activity of EPAC1^CNB-GEF: increased
EPAC1^FL [8]
  increase in affinity, PM liposomes vs solution: 278 fold
EPAC1^α-CNB-GEF [4]
  Dmax (largest protein dimension): 130 Å
EPAC1^α-CNB-GEF [4]; single ligand
  Rg, Guinier analysis: 34.91 Å
  Rg, P(r) analysis: 35.53 Å

## CO[C@@H]1[C@@H]2OP(=O)(O)OC[C@H]2O[C@H]1n1c(Sc2ccc(Cl)cc2)nc2c(N)ncnc21 [compound 007, 8-(4-chlorophenylthio)−2’-O-methyl-cAMP]
EPAC1; in solution, in vitro
  maximal activity (kmax) compared to cAMP: threefold; also recorded: three times higher
EPAC1^FL [8]
  increase of kmax, PM liposomes vs solution: 12.3 fold and 12 fold
  increase in affinity, PM liposomes vs solution: 107 fold
EPAC1^FL [8]; in solution, Supplementary Table 5 mean
  Kd: 1.57 µM
